# Reference: patent US20130084328A1, “METHYLATED CODING AND NON-CODING RNA GENES AS DIAGNOSTIC AND THERAPEUTIC TOOLS FOR HUMAN MELANOMA” (Sanford-Burnham Medical Research Institute, priority 2011, published 2013)
# System: miR-124-3a and miR-let-7i
# Test: expression and bisulfite methylation of miR-124-3a and miR-let-7i after 5-Aza-dC
# Assay type: cell-based, human
# Conditions: melanoma cells
# Protocol: PCR was performed using a 6-minute hot-start at 95° C., followed by 35 cycles at 94° C. for 20 s, 54° C. for 25 s, and 72° C. for 30 s, ending with a 10-min extension at 72° C. using AmpliTaq Gold (Applied Biosystems/Life Technologies). PCR products were gel purified using the QiaQuick gel extraction kit (QIAGEN) and cloned into the pCR4-TOPO vector (Invitrogen/Life Technologies). Nine clones for each miRNA candidate and 6 clones for each patient sample were sequenced using M13 primers and the BigDye terminator kit v1.1 (Applied Biosystems/Life Technologies), analyzed on a 3130×1 Genetic Analyzer (Applied Biosystems/Life Technologies), and aligned using Vector NTi AlignX (Invitrogen/Life Technologies).
structure (smiles),measurement,value
"Nc1ncn([C@H]2C[C@H](O)[C@@H](CO)O2)c(=O)n1 [5AzadC, 5-aza-2′-deoxycytidine]",expression and methylation levels of miR-124-3a and miR-let-7i,not affected
